Laboratory results from patent publication US5856439A, “Farnesyl transferase inhibitors, preparation thereof, and pharmaceutical compositions containing same” (Rhone-Poulenc Rorer S.A., priority 1995, dated 1999).

Molecular target: T1, human farnesyl transferase purified from THP1 cell cultures (Homo sapiens, UniProt P49354+P49356)
T1 construct: human farnesyl transferase purified from THP1 cell cultures; endogenous in cells; host or cells: THP1 cell cultures (enzyme purified from them)
Assay: Farnesyl transferase inhibition: [3H]farnesyl transfer from [3H]FPP to p21 H-ras
Assay type: biochemical
Conditions: 20 minutes at 37° C., 9 concentrations, each test repeated 3 times, read-out: Inhibitory activity IC50
Method: Farnesyl transferase activity is determined by the quantity of [^3 H]farnesyl transferred from [^3 H]farnesyl pyrophosphate [[^3 H]FPP) to the p21 H-ras protein. The standard reaction mixture is composed, for a final volume of 60 μl, of 50 mM Tris-HCl, 5 mM MgCl2, 5 mM dithiotreitol, 0.2% octyl β-D-glucopyranoside, 200 picomol p21 H-ras, 4.5 picomol [^3 H]FPP (activity 61000 dpm/picomol).
Reaction is initiated by adding approximately 5 ng of human farnesyl transferase purified from THP1 cell cultures. After incubation for 20 minutes at 37° C. in a microtitration plate containing 96 1-cm^3 wells per plate (Titer Plate®, Beckman), the reaction is stopped by adding 0.4 cm^3 of 0.1% SDS in methanol at 0° C. The mixture is then treated with 0.4 cm^3 of 30% trichloroacetic acid® (TCA) in methanol. The plates are left in ice for 1 hour. […] The membranes are dried in a microwave oven, then impregnated with scintillation medium by melting Meltilex® (Pharmacia) under hot air, and lastly counted in cpm in a β-Plate® counter (LKB). […]
The percentage inhibition values are obtained by comparison of the tests with and without inhibitor after deduction of blanks, the IC50 values being measured on the basis of the inhibitions obtained with 9 different concentrations using Enzfitter® or Grafit® software.

Row | IC50 | Substance
1 | 15.5 nM | Cys-(N-Me)Val-[cis-3-phenyl-DL-prolyl]-Met
2 | 920 nM | Cys-(N-Me)Val-[trans-3-phenyl-DL-prolyl]-Met
